In patent US20240352036A1, “CRYSTALLINE FORMS OF RAS INHIBITORS, COMPOSITIONS CONTAINING THE SAME, AND METHODS OF USE THEREOF” (Revolution Medicines, Inc., priority 2023, published 2024):

Key:
Format in all cases: physicochemical
[1] = XRPD monitoring over time of pure Form 1 from a saturated diethyl ether slurry
Procedure: The formation of Form 2 is indicated by the presence of an intense peak at 4.8° 2θ (FIG. 2), which is absent in pure samples of Form 1 (FIG. 1 and FIG. 3). To study the formation of Form 2, a saturated slurry of Compound A was prepared in diethyl ether, which produced pure Form 1 at time=0 hr, and this pure sample was monitored over time using XRPD analysis. A shoulder peak at 4.8° 2θ was detected after approx. 2 hours and increased in intensity compared to the original Form 1 peaks after 4 and 17 days (FIG. 4).

[2] = variable humidity XRPD of crystalline Form 1; details: 25° C., XRPD at each RH
Procedure: In another method, crystalline Form 1 was subjected to variable humidity XRPD experiments. In this experiment, two relative humidity (RH) cycles were applied at 25° C. XRPD analysis was carried out in each specific relative humidity. Cycle 1: 40% RH (initial)-40% RH (3 h)-60% RH (3 h)-80% RH (3 h)-95% RH (3 h)-80% RH (3 h)-60% RH (3 h)-40% RH (3 h)-20% RH (3 h) 0% RH (3 h); Cycle 2: 20% RH (3 h)-40% RH (3 h).

[3] = storage under ambient conditions followed by XRPD; details: two weeks of storage under ambient conditions (room temperature)

In the case of CCn1c(-c2cccnc2[C@H](C)OC)c2c3cc(ccc31)N1CCO[C@@H](C[C@H](NC(=O)[C@H](C(C)C)N(C)C(=O)C3(F)CCN(C(=O)C#CC(C)(C)N(C)C)CC3)C(=O)N3CCC[C@H](N3)C(=O)OCC(C)(C)C2)C1 (atropisomer, axis not shown) [Form 1], the “time until the Form 2 shoulder peak at 4.8° 2θ was detected” value ([1]; pure Form 1 at time=0 hr from saturated diethyl ether slurry, peak increased in intensity after 4 and 17 days) is reported as “approx. 2 hours”, the “solid form stability over time (XRPD)” value ([1]; pure Form 1 monitored up to 17 days) is reported as “may produce a mixture of Forms 1 and 2 over time” and the “solid form conversion at relative humidity higher than 80% RH” value ([2]; two RH cycles 0-95% RH, 3 h per step, RH higher than 80%) is reported as “converted or partially converted to Form 2”.
With CCn1c(-c2cccnc2[C@H](C)OC)c2c3cc(ccc31)N1CCO[C@@H](C[C@H](NC(=O)[C@H](C(C)C)N(C)C(=O)C3(F)CCN(C(=O)C#CC(C)(C)N(C)C)CC3)C(=O)N3CCC[C@H](N3)C(=O)OCC(C)(C)C2)C1 (atropisomer, axis not shown) [Form 2] the “solid form conversion at relative humidity lower than 80%” value ([2]; two RH cycles, RH lower than 80%) was “converted back to Form 1”.
With CCn1c(-c2cccnc2[C@H](C)OC)c2c3cc(ccc31)N1CCO[C@@H](C[C@H](NC(=O)[C@H](C(C)C)N(C)C(=O)C3(F)CCN(C(=O)C#CC(C)(C)N(C)C)CC3)C(=O)N3CCC[C@H](N3)C(=O)OCC(C)(C)C2)C1 (atropisomer, axis not shown) [Form 4] the “solid form stability on storage (XRPD)” value [3] was “converted to a disordered material”.
